Like-named read-outs stand apart in the source and are kept apart here.
Test system: human articular chondrocytes
Test: Radioimmunoassay of cartilaginous proteoglycans (PG) produced in tridimensional culture of human chondrocytes
Type: cell-based
Details: for PG in the clusters over 12 days: 0-12 days
Excerpt: The model used for testing the proanthocyanidols, namely the tridimensional culture of human chondrocytes allows chondrorepair to be quantified by the production of matrix substances: type II collagen, proteoglycans, and chondroresorption by the reduction in the levels of prostaglandin E2 and of OH° and O°2 type free radicals produced.
1. Tridimensional culture of human chondrocytes
The technique used has been described in detail (Bassleer et al., 1986).
Briefly, human articular chondrocytes are cultivated in DMEM (Dulbecco's Modification of Eagle's Medium--ICN--Gand, Belgium) with either Ultroser G 1% (GIBCO, Gand, Belgium) or 10% of foetal calf serum (ICN--Gand--Belgium), and 50 μg of ascorbic acid/ml added to it. The cartilage originates from the apparently normal zone of heads of human femur suffering from arthrosis, immediately after an operation carried out to insert a total hip prosthesis; it can also originate from the head of a healthy femur, but which has undergone a traumatism and has had to be replaced. This cartilage is then digested by clostridial collagenase 1 mg/ml (Boehringer-Mannheim, Germany) in a buffer (NaCl 120 mM, CaCl2 1 mM, KCl 5 mM, KH2 PO4 1 mM, NaHCO3 25 mM, glucose 2 mM and Hepes 30 mM, pH 7.4) for 24 hours. After 6 successive washings and centrifugations, the chondrocytes, isolated from their matrix, are cultured in flasks (10^6 cells/2 ml of culture medium) placed on a gyrator (10 rpm). The cultures are kept at 37° C. in an atmosphere of air 95%-CO2 5% (Bassleer et al., 1986). Cultivated under these conditions, after 4 to 5 days the chondrocytes form a tridimensional cluster in each flask. These clusters, which at first have a flocculent appearance, then tend to condense during the culture. After two weeks, their diameter is, in general, from 1 to 2 mm.
The fresh weight of the clusters increases with the duration of the culture, above all during the few first days.
2. Radioimmunoassay of cartilaginous proteoglycans (PG)
The PGs are measured with a radioimmunoassay (RIA) which is specific and sensitive to human cartilaginous PGs (Gysen et al. 1984). The PGs were extracted from human cartilage, according to the methods described by Roughley et al., (1981) and by Bayliss and Venn (1980). The antiserum against the cartilaginous PGs was obtained from the rabbit according to the technique of Vaitukaitis et al. (1971). The radioimmunoassay is carried out in a 0.4 ml volume consisting of 0.1 ml of tracer solution (15000 to 20000 cpm ^125 I-PG, labelled by the chloramine T method (Greenwood, 1973). 0.1 ml of anti-PG antiserum diluted to 1/5000 in phosphate-buffered saline (PBS-50 mM PO4, 150 mM NaCl ), containing BSA (5 g/l bovine serum albumin and 6.7 mM sodium azide) (incubation buffer) and 0.2 ml of several dilutions of the culture medium or of the cluster extract or also of the antigen (0.5 -500 ng/tube).
After four days at 4° C., the free PGs* (radioactive PGs) are separated from the PG*-antibody complexes by double precipitation (Franchimont et al., 1983).
The sensitivity of the assay is 0.6 ng/tube. The accuracy of measurement is of the order of 4%. The coefficients of the intra- and inter assay variation are less than 10% and 20% respectively.
The antibodies are directed against the antigenic determinants of the central protein of PG. There is a complete crossed reaction with human PGs of cartilage from the ribs, vertebral disks and trachea, even with PGs extracted from veins or arteries. There is no cross reaction with glycosaminoglycans or with PGs extracted from foetal tissues or the small PGs from bone.
The PGs are measured directly in the culture medium. As for the chondrocyte clusters, they are washed 3 times in a phosphate-buffered saline (PBS-50 mM PO4, 150 mM NaCl pH 7.4) containing protease inhibitors (Oegema et al., 1975:100 mM 6-aminohexanoic acid, 10 mM EDTA, 50 mM benzamidine hydrochloride, 5.10^-8 M trypsin inhibitor, 6.7 mM sodium azide and 200 U/ml superoxide dismutase). […]

Oc1cc(O)c2c(c1)O[C@H](c1cc(O)c(O)c(O)c1)[C@@H](O)[C@@H]2c1c(O)cc(O)c2c1O[C@H](c1cc(O)c(O)c(O)c1)[C@H](O)C2 [Substance Ia, GC-(4 alpha→8) EGC]
PG in the clusters over 12 days (1% Ultroser G, 1 μg/ml): 912 ± 83.6 ng/μg DNA
PG in the clusters over 12 days (1% Ultroser G, 10 μg/ml): 1411 ± 153 ng/μg DNA
PG in the clusters over 12 days (1% Ultroser G, 100 μg/ml): 2105 ± 42 ng/μg DNA
PGs released in the culture medium (1% Ultroser G, culture time 0-4 days, 1 μg/ml): 14.2 ± 1.6 μg/μg DNA/96 h
PGs released in the culture medium (1% Ultroser G, culture time 0-4 days, 10 μg/ml): 22.4 ± 0.2 μg/μg DNA/96 h
PGs released in the culture medium (1% Ultroser G, culture time 0-4 days, 100 μg/ml): 28.6 ± 2.85 μg/μg DNA/96 h
PGs released in the culture medium (1% Ultroser G, culture time 4-8 days, 1 μg/ml): 1.74 ± 0.18 μg/μg DNA/96 h
PGs released in the culture medium (1% Ultroser G, culture time 4-8 days, 10 μg/ml): 3.26 ± 0.12 μg/μg DNA/96 h
PGs released in the culture medium (1% Ultroser G, culture time 4-8 days, 100 μg/ml): 3.94 ± 0.1 μg/μg DNA/96 h
PGs released in the culture medium (1% Ultroser G, culture time 8-12 days, 1 μg/ml): 0.44 ± 0.04 μg/μg DNA/96 h
PGs released in the culture medium (1% Ultroser G, culture time 8-12 days, 10 μg/ml): 0.74 ± 0.18 μg/μg DNA/96 h
PGs released in the culture medium (1% Ultroser G, culture time 8-12 days, 100 μg/ml): 0.78 ± 0.02 μg/μg DNA/96 h
Proteoglycans released during the 12 days of culture, Abs (1% Ultroser G, cumulative, 1 μg/ml): 16.4 μg/μg DNA/12 days
Proteoglycans released during the 12 days of culture, Abs (1% Ultroser G, cumulative, 10 μg/ml): 26.4 μg/μg DNA/12 days
Proteoglycans released during the 12 days of culture, Abs (1% Ultroser G, cumulative, 100 μg/ml): 33.3 μg/μg DNA/12 days
Concentrations of PG in the clusters, effect in words (1% Ultroser G, three concentrations studied): significantly stimulated and in a dose-dependent way
activity at 1 µg/mL (Homo sapiens, Chondrocyte, 288 h, 1% Ultroser G, cumulative, 1 μg/ml, control = 100, read-out: Proteoglycans released during the 12 days of culture, %): 103%
activity at 10 µg/mL (Homo sapiens, Chondrocyte, 288 h, 1% Ultroser G, cumulative, 10 μg/ml, control = 100, read-out: Proteoglycans released during the 12 days of culture, %): 165%
activity at 100 µg/mL (Homo sapiens, Chondrocyte, 288 h, 1% Ultroser G, cumulative, 100 μg/ml, control = 100, read-out: Proteoglycans released during the 12 days of culture, %): 208%
activity at 10 µg/mL (Homo sapiens, Chondrocyte, foetal calf serum, Table 14, 0-4 days, 10 μg/ml, control = 100%, read-out: PG in the culture medium, % of control): 118%
activity at 100 µg/mL (Homo sapiens, Chondrocyte, foetal calf serum, Table 14, 0-4 days, 100 μg/ml, control = 100%, read-out: PG in the culture medium, % of control): 147%
activity at 10 µg/mL (Homo sapiens, Chondrocyte, foetal calf serum, Table 14, 4-8 days, 10 μg/ml, control = 100%, read-out: PG in the culture medium, % of control): 119%
activity at 100 µg/mL (Homo sapiens, Chondrocyte, foetal calf serum, Table 14, 4-8 days, 100 μg/ml, control = 100%, read-out: PG in the culture medium, % of control): 135%
activity at 10 µg/mL (Homo sapiens, Chondrocyte, foetal calf serum, Table 15, 0-4 days, 10 μg/ml, control = 100%, read-out: PG in the culture medium, % of control): 131%
activity at 100 µg/mL (Homo sapiens, Chondrocyte, foetal calf serum, Table 15, 0-4 days, 100 μg/ml, control = 100%, read-out: PG in the culture medium, % of control): 166%
activity at 10 µg/mL (Homo sapiens, Chondrocyte, foetal calf serum, Table 15, 4-8 days, 10 μg/ml, control = 100%, read-out: PG in the culture medium, % of control): 123%
activity at 100 µg/mL (Homo sapiens, Chondrocyte, foetal calf serum, Table 15, 4-8 days, 100 μg/ml, control = 100%, read-out: PG in the culture medium, % of control): 138%
activity at 10 µg/mL (Homo sapiens, Chondrocyte, foetal calf serum, Table 16, 0-8 days, 10 μg/ml, control = 100%, read-out: PG in the clusters over 8 days, % of control): 128%
activity at 100 µg/mL (Homo sapiens, Chondrocyte, foetal calf serum, Table 16, 0-8 days, 100 μg/ml, control = 100%, read-out: PG in the clusters over 8 days, % of control): 158%
activity at 10 µg/mL (Homo sapiens, Chondrocyte, foetal calf serum, Table 17, 0-8 days, 10 μg/ml, control = 100%, read-out: PG in the clusters over 8 days, % of control): 120%
activity at 100 µg/mL (Homo sapiens, Chondrocyte, foetal calf serum, Table 17, 0-8 days, 100 μg/ml, control = 100%, read-out: PG in the clusters over 8 days, % of control): 144%
PGs in the clusters, effect in words (foetal calf serum, 10 and 100 μg/ml): significantly increased
PG in the culture medium (foetal calf serum, Table 14, 0-4 days, 10 μg/ml): 7.7 ± 0.49 μg/μg DNA - 96 H
PG in the culture medium (foetal calf serum, Table 14, 0-4 days, 100 μg/ml): 9.5 ± 1.34 μg/μg DNA - 96 H
PG in the culture medium (foetal calf serum, Table 14, 4-8 days, 10 μg/ml): 2.37 ± 0.17 μg/μg DNA - 96 H
PG in the culture medium (foetal calf serum, Table 14, 4-8 days, 100 μg/ml): 2.69 ± 0.15 μg/μg DNA - 96 H
PG in the culture medium (foetal calf serum, Table 15, 0-4 days, 10 μg/ml): 6.9 ± 0.99 μg/μg DNA - 96 H
PG in the culture medium (foetal calf serum, Table 15, 0-4 days, 100 μg/ml): 8.8 ± 1.49 μg/μg DNA - 96 H
PG in the culture medium (foetal calf serum, Table 15, 4-8 days, 10 μg/ml): 2.1 ± 0.21 μg/μg DNA - 96 H
PG in the culture medium (foetal calf serum, Table 15, 4-8 days, 100 μg/ml): 2.4 ± 0.09 μg/μg DNA - 96 H
PG in the clusters over 8 days (foetal calf serum, Table 16, 0-8 days, 10 μg/ml): 1004 ± 56 ng/μg DNA
PG in the clusters over 8 days (foetal calf serum, Table 16, 0-8 days, 100 μg/ml): 1242 ± 208 ng/μg DNA
PG in the clusters over 8 days (foetal calf serum, Table 17, 0-8 days, 10 μg/ml): 688.8 ± 40.65 ng/μg DNA
PG in the clusters over 8 days (foetal calf serum, Table 17, 0-8 days, 100 μg/ml): 829.4 ± 9.37 ng/μg DNA

Reference: patent US5670538A, “Use of prodelphinidins for obtaining medicaments intended for the treatment of arthrosis” (Laboratoires Dolisos, priority 1992, dated 1997)
